Patent US20210255184A1, “Biosensor Device and Methods” (The New Zealand Institute for Plant and Food Research …, priority 2018, published 2021)
Read-outs that look alike come from different tables or passages of the source.

Legend:
Or22a = target: T1, Or22a (Drosophila melanogaster, UniProt P81909); experiment: GFET sensor, Or22a liposomes; assay type: biochemical; conditions: Table 4, GFET
T1 construct: his-tag; made in house; host or cells: baculovirus-infected Sf9 cells
T1 sequence (P81909 1-397): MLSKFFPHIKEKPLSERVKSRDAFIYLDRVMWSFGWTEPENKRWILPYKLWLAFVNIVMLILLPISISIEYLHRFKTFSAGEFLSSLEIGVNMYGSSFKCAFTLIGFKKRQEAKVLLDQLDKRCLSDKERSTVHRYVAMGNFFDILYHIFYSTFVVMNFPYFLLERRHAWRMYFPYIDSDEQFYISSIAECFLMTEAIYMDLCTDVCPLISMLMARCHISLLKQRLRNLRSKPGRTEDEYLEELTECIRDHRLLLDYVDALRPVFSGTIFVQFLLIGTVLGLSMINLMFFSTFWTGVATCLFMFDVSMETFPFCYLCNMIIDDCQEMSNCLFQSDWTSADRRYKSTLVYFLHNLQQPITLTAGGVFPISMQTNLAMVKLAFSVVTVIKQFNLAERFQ
Text: The GFETs used in this study were fabricated from a predeposited graphene film on 300 nm SiO2 coated Si substrate from ACS Suppliers, USA. The FETs consist of a channel with dimensions of 100 μm width and […]. The key steps involved in fabricating the GFET on a Si/SiO2 substrate is schematically illustrated in FIG. 12. The source and drain electrodes were defined by photolithography and formed by successive deposition of Cr and Au. Both the drain and source electrodes were then encapsulated using AZ1518 photoresist and a channel with dimensions of 100 μm width and 10 μm length was left open to the environment for gating and functionalisation.
The OR liposomes were functionalised onto the graphene surface via a non-covalent route using PBASE as the molecular linker as shown in FIG. 13. The OR liposomes were diluted at 1:10 ratio with 1×PBS (pH7.4). The cleaned GFETs were immersed in 1 mM PBASE solution in methanol for 1 hour. […]
Electrical sensor measurements of OR liposome functionalised GFETs were carried out using top liquid gate morphology as shown in the schematic in FIG. 15 (a). […] The transfer characteristics of the different graphene FETs (FIG. 15 (b) to (g)) were measured at Vds=1 mV while the liquid gate voltage Vlg was swept from −0.5 V to 1 V with an interval of 20 mV. […]

DmOr22a/Orco = target: T2, DmOr22a/Orco (Drosophila melanogaster, UniProt P81909); conditions: * estimated visually from graph, cited from earlier work
T2 sequence (P81909 1-397): T1 sequence (P81909 1-397)
T2 sequence (Q9VNB5 1-486 partner): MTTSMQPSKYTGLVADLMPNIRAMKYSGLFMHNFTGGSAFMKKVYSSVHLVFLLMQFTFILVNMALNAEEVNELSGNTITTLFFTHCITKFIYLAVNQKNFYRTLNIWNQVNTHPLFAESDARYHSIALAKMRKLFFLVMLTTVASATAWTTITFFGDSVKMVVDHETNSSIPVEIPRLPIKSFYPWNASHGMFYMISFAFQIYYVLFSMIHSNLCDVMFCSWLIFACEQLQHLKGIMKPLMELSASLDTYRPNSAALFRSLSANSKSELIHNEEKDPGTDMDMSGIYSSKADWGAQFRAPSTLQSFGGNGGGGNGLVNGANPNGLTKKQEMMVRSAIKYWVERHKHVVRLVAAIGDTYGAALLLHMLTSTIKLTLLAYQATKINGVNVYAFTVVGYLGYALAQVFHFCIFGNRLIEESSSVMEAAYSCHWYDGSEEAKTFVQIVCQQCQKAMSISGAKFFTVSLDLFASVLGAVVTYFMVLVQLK

CCCCCC(=O)OC [methyl hexanoate]
Detection Range (Or22a): 10^−12 to 10^−8 M
EC50 (Or22a): 0.0121 nM
Sensitivity limit (given as Log) (DmOr22a/Orco; ref 43): Log = −7.5*
Sensitivity limit (given as Log) (DmOr22a/Orco; ref 44): Log = −7*
